“Also recorded” adds a separate entry of the source.
Columns and labels:
HeLa cells = assay: Cytoprotection from tunicamycin ER stress (WST-8 cell viability); format: cell-based, human; settings: Tunicamycin 2.5 ug/ml, 0.2-5 μM compound
Procedure: Cells were plated in 24-well plates at a density of 15,000 (HeLa) or 12,000 cells/ml (MEFs) 24 hours prior to treatment. ER stress was elicited by addition of fresh media containing 2.5 μg/ml tunicamycin (Sigma-Aldrich). Compounds of Example 1 were dissolved in DMSO and added as indicated. DMSO was used as a mock treatment. Cell viability was assessed by measuring the reduction of WST-8 [2-(2-methoxy-4-nitrophenyl)-3-(4-nitrophenyl)-5-(2,4-disulfophenyl)-2H-tetrazolium] into formazan using Cell viability Counting Kit-8 (Dojindo) according to the supplier's recommendation, 48 hours after tunicamycin treatment.
Cells where stressed with Tunicamycin (2.5 ug/ml) in the presence of 0.2-5 μM of a compound of Example 1. Cell viability was measured 3 days after treatment.
Cytoprotection against ER stress can be measured by a suitable assay. In this instance, cytoprotection was measured in HeLa cells in which ER stress was elicited by the addition of media containing tunicamycin, a drug that blocks N-glycosylation, thereby preventing protein folding and inducing the unfolded protein response. Cell viability was then detected in the presence and absence of a compound of Example 1 after a set period of time, by measuring the reduction of WST-8 into formazan using the standard cell viability kit Cell Viability Counting Kit-8 from Dojindo. […]

[1] = Tissue distribution in mice after oral gavage; format: in vivo, mouse
Procedure: Pharmacokinetics studies were performed by XenoGesis. TST3 was administrated orally in C57BL/6J males. Plasma samples were prepared by protein precipitation with methanol containing internal standards. Tissues were weighed and prepared by homogenisation (1:3 in phosphate buffered saline) and protein precipitated with methanol containing internal standard. Following the addition of methanol, plasma and tissue samples were placed at −20° C. for 1 hour (or overnight) to allow proteins to precipitate. The samples were then centrifuged at 2,500×g (3,400 rpm) for 20 minutes at 4° C. The supernatants were analysed by LC-MS/MS.

PP1c = PP1c (Homo sapiens, UniProt P36873); assay: SPR binding to PP1c alone immobilized on chip
Procedure: The streptavidin coated surface was activated by 1 minute injection with a solution of 50 mM NaOH and 1 M NaCl three times at a flow rate of 10 μl/min. bio-GBZ or bio-PP1c was diluted in the running buffer (50 mM Tris pH 7.5, 100 mM NaCl, 0.1 mM EGTA, 0.05% Tween 20, 0.1% DMSO) and injected at approximately 300 nM concentration at a flow rate of 10 μl/min directly to streptavidin coated surface to reach immobilization level of bio-GBZ or bio-PP1c corresponding to ˜200 and 6000 RU, respectively. A blank immobilization was performed for one of the SA sensor chip surface to use as a reference.
With minor deviations, the same procedure and conditions were used in all binding experiments. Small molecules were stored as 50 mM stock solutions in 100% DMSO. Prior to determining binding constants, serial dilutions of either 12 or 8 concentrations of the compounds were prepared in the running buffer in a 96-well plate. […] This was followed by 1 minute stabilization period, to wash off any unspecific binding. Then, without regenerating the surface, the compound dilution series was injected onto the surface of the chip at a flow rate of 30 μl/min for 1 minute, followed by 2 minutes dissociation time. […]
Kinetic experiments are carried out using different concentrations of the compound and their respective equilibrium binding levels determined.

R15A [2] = biological target: T1, R15A (Homo sapiens, UniProt O75807); assay: SPR of recombinant R15A binding to immobilized bio-GBZ; settings: isolated R15A fragment, compound immobilized on chip
T1 construct: the cDNAs encoding amino acids 325-636 of PPP1R15A; MBP (N); His (C); made in house; host or cells: E. coli BL21-Gold
Procedure: (§1) B. SPR sensorgrams of R15A and R15B binding to bio-GBZ immobilized on the SPR sensor chip surface. R15A/B concentration=0.0244-12.5 μM.
(§2) Here we set out to develop a generalizable strategy to identify new selective phosphatase inhibitors. First, we expressed and purified R15A and R15 B (FIG. 12) and used surface plasmon resonance (SPR) to measure binding affinities of known R15A inhibitors to their targets. We tried to immobilized R15 on SPR chip but this method produced inconsistent results, probably because the natively unstructured proteins precipitate on the chip. We therefore used biotynilated guanabenz (GBZ) (7) that we immobilized on the chip and tested binding of the proteins on the immobilized compound (FIGS. 13A and 13B).
(§3) A Biacore T200 (GE Healthcare) system was used for all experiments and biotinylated GBZ (bio-GBZ) (Tsaylter 2011) or bio-PP1 was captured on a Sensor Chip SA (GE Healthcare). […]

R15A [3] = assay: as above; parameters: species or system human; settings: immobilized biotinylated GBZ
Procedure: as §1, §2, §3

Chain of PP1c (P36873 whole entry): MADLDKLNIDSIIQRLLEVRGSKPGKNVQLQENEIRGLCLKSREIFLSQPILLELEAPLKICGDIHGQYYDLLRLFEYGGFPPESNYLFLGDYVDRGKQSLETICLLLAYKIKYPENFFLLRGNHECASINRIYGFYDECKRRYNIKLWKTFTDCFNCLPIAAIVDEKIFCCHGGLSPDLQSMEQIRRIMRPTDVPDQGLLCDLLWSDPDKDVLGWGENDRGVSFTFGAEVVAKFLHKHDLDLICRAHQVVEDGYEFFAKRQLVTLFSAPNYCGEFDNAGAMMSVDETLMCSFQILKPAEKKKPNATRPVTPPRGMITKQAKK
T1 sequence (O75807 325-636, stated change not applied): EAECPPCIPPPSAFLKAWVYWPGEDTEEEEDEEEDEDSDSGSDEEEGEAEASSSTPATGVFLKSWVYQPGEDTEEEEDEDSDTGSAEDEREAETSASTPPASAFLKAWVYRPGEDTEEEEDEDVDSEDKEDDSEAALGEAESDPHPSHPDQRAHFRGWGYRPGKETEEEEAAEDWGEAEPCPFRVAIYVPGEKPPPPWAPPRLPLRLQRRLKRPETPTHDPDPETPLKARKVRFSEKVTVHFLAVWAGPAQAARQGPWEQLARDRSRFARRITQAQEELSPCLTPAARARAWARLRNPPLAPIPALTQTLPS

## [H]/N=C(\N)NN=Cc1cccc(Cl)c1Cl [Example 1, (E)-2-(2,3-dichlorobenzylidene)hydrazine-1-carboximidamide]
HeLa cells
  protection of cells from tunicamycin stress (cell viability): protects cells from cytotoxic ER stress
[1]
  tissue distribution (plasma, brain, spinal cord, pancreas, liver): good tissue distribution; also recorded: extensive tissue distribution

## N=C(N)N/N=C/c1c(Cl)cccc1Cl [Guanabenz, reference compound]
PP1c
  binding to PP1c alone (in words): not to PP1c alone
R15A [2]
  Kd: 11 µM
R15A [3]
  affinity for recombinant R15A fragment relative to R15B: ten times higher affinity

Source: US11364211B2, “Methods for selecting phosphatase selective and non-selective phosphatase inhibitors” (MEDICAL RESEARCH COUNCIL, priority 2015, dated 2022)
